Results taken from patent publication US20090246169A1, “INDOLOPYRIDINES AS EG5 KINESIN MODULATORS” (priority 2006, published 2009).

Each compound was assayed on RKO p27 colon adenocarcinoma cells, uninduced (proliferating) (assay: Alamar Blue cell viability assay, RKO p27 uninduced (proliferating)). Settings: Homo sapiens, RKOp27; anti-proliferative/cytotoxic activity, 72 hours, without Ponasterone A; read-out: −log EC50 [mol/l] RKO p27 uninduced (proliferating) (converted).
Assay type: cell-based
Experimental: The anti-proliferative/cytotoxic activity of the compounds described herein can be tested on subclones of RKO human colon adenocarcinoma cells (Schmidt et al., Oncogene 19, 2423-2429; 2000) using the Alamar Blue cell viability assay (described in O'Brien et al. Eur J Biochem 267, 5421-5426, 2000). The compounds are dissolved as 10 mM solutions in DMSO and subsequently diluted in semi-logarithmic steps. DMSO dilutions are further diluted 1:100 into Dulbecco's modified Eagle's medium (DMEM) containing 10% fetal calf serum to a final concentration twice as much as the final concentration in the test. […] To determine the viability of the cells, 10 μl of an Alamar Blue solution (Biosource) are added and the fluorescence is measured at an extinction of 544 nm and an emission of 590 nm. […] Viabilities are expressed as % values. […]
(§1) To determine the cell cycle specific mode of action, subclones of RKO colon adenocarcinoma cells (RKOp21 or RKOp27 as described by Schmidt et al. in Oncogene 19, 2423-2429; 2000) are seeded into 96 well flat bottom plates at a density of 16000 cells per well in a volume of 50 μl per well in DMEM growth medium with 10% FCS containing 10 μM Ponasterone A. 24 hours after seeding the 50 μl each of the compound dilutions in DMEM medium are added into each well of the 96-well plate. […] Viabilities are expressed as % values. […]

SMILES | EC50
COc1ccc2[nH]c3c(c2c1)C[C@@]1(C)C(=O)N(CCN(C)C)C(=O)N1[C@@H]3c1ccccc1 (racemic) [Example 1, (3aSR,10RS)-2-(2-Dimethylamino-ethyl)-6-methoxy-3a-methyl-10-phenyl-3a,4,9,10-tetrahydro-2,9,10a-triaza-cyclopenta[b]fluorene-1,3-dione] | 63.1 nM

The compounds below were run against T1, Eg5 kinesin motor domains (Homo sapiens, UniProt P52732) (assay: Eg5 ATPase activity assay (Malachite green)). Settings: 300 μM ATP, 250 nM microtubules, 30 min room temperature, read-out: Inhibition of Eg5 activity, −log IC50 [mol/l] (converted).
T1 construct: The ATPase activity of Eg5 kinesin motor domains (Cytoskeleton, cat. No. EG01); purchased Cytoskeleton EG01
T1 sequence (P52732 18-359 limits assumed): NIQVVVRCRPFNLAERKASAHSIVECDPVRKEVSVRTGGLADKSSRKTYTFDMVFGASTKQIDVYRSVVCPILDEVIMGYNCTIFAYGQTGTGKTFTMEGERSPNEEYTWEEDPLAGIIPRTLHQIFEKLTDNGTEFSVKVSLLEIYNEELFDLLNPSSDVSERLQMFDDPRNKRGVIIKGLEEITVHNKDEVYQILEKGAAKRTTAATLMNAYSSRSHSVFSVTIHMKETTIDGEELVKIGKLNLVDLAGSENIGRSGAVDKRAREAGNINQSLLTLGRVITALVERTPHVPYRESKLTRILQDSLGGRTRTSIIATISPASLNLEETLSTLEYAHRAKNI
Assay type: biochemical
Experimental: The ATPase activity of Eg5 kinesin motor domains (Cytoskeleton, cat. No. EG01) can be used to monitor the effects of modulating agents. The test compounds are dissolved as 10 mM solutions in dimethylsulfoxide (DMSO). 2 μl of appropriate DMSO dilutions of the test compounds are added to each well of a 96 well flat bottom plate. Each compound dilution is tested as triplicates. The reagents are added and the final reaction of the standard assay contains 15 mM Pipes, pH 6.8, 5.0 mM MgCl2, 0.5 mM KCl, 1 mM EGTA, 0.1 mg/ml BSA, 1 μM Paclitaxel, 250 nM preformed microtubules (Cytoskeleton, cat. No. MT001), 300 μM ATP, and Eg5 protein (50 ng) in a reaction volume of 100 μl. The controls include buffer wells with ATP and 2% DMSO. Reactions are started by the addition of ATP, incubated at room temperature for 30 min., and terminated by removing 20 μl of the reaction volume and adding it to 80 μl of 1 M perchloric acid, followed by the addition of 80 μl Malachite green reagent. […] The reactions are incubated for a further 20 min. and then read at 615 nm.
The corresponding IC50 values of the compounds for Eg5 inhibition are determined from the concentration-effect curves.
Representative inhibitory values [measured as −log IC50 (mol/l)] determined in the aforementioned assay follow from the following table A, in which the numbers of the compounds correspond to the numbers of the examples.

SMILES | IC50
COc1ccc2[nH]c3c(c2c1)C[C@@]1(C)C(=O)N(CCN(C)C)C(=O)N1[C@@H]3c1ccccc1 (racemic) [Example 1, (3aSR,10RS)-2-(2-Dimethylamino-ethyl)-6-methoxy-3a-methyl-10-phenyl-3a,4,9,10-tetrahydro-2,9,10a-triaza-cyclopenta[b]fluorene-1,3-dione] | 31.6 nM

What follows are compounds tested on RKO p21 colon adenocarcinoma cells, uninduced (proliferating) (assay: Alamar Blue cell viability assay, RKO p21 uninduced (proliferating)). Settings: Homo sapiens; anti-proliferative/cytotoxic activity, 72 hours, without Ponasterone A; read-out: −log EC50 [mol/l] RKO p21 uninduced (proliferating) (converted).
Assay type: cell-based
How it was run: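 Proliferating RKO subclones, no Ponasterone A inducer, seeded in DMEM/10% FCS and dosed after 24 h with semi-log dilutions in triplicate, 72 h at 37 °C, 5% CO2. Viability by Alamar Blue fluorescence (544/590 nm) vs untreated cells; EC50 from dose-response curves.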

SMILES | EC50
CCN(CC)CCN1C(=O)N2[C@H](c3ccccc3)c3[nH]c4ccc(OC)cc4c3C[C@@]2(C)C1=O (racemic) [Example 41, (3aSR, 10RS)-2-(2-Diethyl-amino-ethyl)-6-methoxy-3a-methyl-10-phenyl-3a,4,9,10-tetrahydro-2,9,10a-triaza-cyclopenta[b]fluorene-1,3-dione] | ≤ 1000 nM
COc1ccc2[nH]c3c(c2c1)C[C@@]1(C)C(=O)N(C)C(=O)N1[C@@H]3c1ccccc1 (racemic) [Example 2, (3aSR,10RS)-6-Methoxy-2,3a-dimethyl-10-phenyl-3a,4,9,10-tetrahydro-2,9,10a-triaza-cyclopenta[b]fluorene-1,3-dione] | ≤ 1000 nM
COCCNCCCN1C(=O)N2[C@H](c3ccccc3)c3[nH]c4ccc(OC)cc4c3C[C@@]2(C)C1=O (racemic) [Example 70, (3aSR, 10RS)-6-Methoxy-2-[3-(2-methoxy-ethylamino)-propyl]-3a-methyl-10-phenyl-3a,4,9,10-tetrahydro-2,9,10a-triaza-cyclopenta[b]fluorene-1,3-dione] | ≤ 1000 nM
COc1ccc2[nH]c3c(c2c1)C[C@@]1(C)C(=O)N(CCNC(C)C)C(=O)N1[C@@H]3c1ccccc1 (racemic) [Example 19, (3aSR,10RS)-2-(2-Isopropylamino-ethyl)-6-methoxy-3a-methyl-10-phenyl-3a,4,9,10-tetrahydro-2,9,10a-triaza-cyclopenta[b]fluorene-1,3-dione] | ≤ 1000 nM
COc1ccc2[nH]c3c(c2c1)C[C@@]1(C)C(=O)N(CCCNCC(F)F)C(=O)N1[C@@H]3c1ccccc1 [Example 50, (3aS, 10R)-2-[3-(2,2-Difluoro-ethylamino)-propyl]-6-methoxy-3a-methyl-10-phenyl-3a,4,9,10-tetrahydro-2,9,10a-triaza-cyclopenta[b] fluorene-1,3-dione] | ≤ 1000 nM
CCN(C)CCCN1C(=O)N2[C@H](c3ccccc3)c3[nH]c4ccc(OC)cc4c3C[C@@]2(C)C1=O (racemic) [Example 53, (3aSR, 10RS)-2-[3-(Ethyl-methyl-amino)-propyl]-6-methoxy-3a-methyl-10-phenyl-3a,4,9,10-tetrahydro-2,9,10a-triaza-cyclopenta[b] fluorene-1,3-dione] | ≤ 1000 nM
COc1ccc2[nH]c3c(c2c1)C[C@@]1(C)C(=O)N(CCCNC(C)(C)C)C(=O)N1[C@@H]3c1ccccc1 (racemic) [Example 76, (3aSR, 10RS)-2-(3-tert-Butylamino-propyl)-6-methoxy-3a-methyl-10-phenyl-3a,4,9,10-tetrahydro-2,9,10a-triaza-cyclopenta[b] fluorene-1,3-dione] | ≤ 1000 nM
COc1ccc2[nH]c3c(c2c1)C[C@@]1(C)C(=O)N(CCN2CCCC2)C(=O)N1[C@@H]3c1ccccc1 (racemic) [Example 3, (3aSR,10RS)-6-Methoxy-3a-methyl-10-phenyl-2-(2-pyrrolidin-1-yl-ethyl)-3a,4,9,10-tetrahydro-2,9,10a-triaza-cyclopenta[b]fluorene-1,3-dione] | ≤ 1000 nM
COc1ccc2[nH]c3c(c2c1)C[C@@]1(C)C(=O)N(CCCN2CC=CC2)C(=O)N1[C@@H]3c1ccccc1 (racemic) [Example 64, (3aSR, 10RS)-2-[3-(2,5-Dihydro-pyrrol-1-yl)-propyl]-6-methoxy-3a-methyl-10-phenyl-3a,4,9,10-tetrahydro-2,9,10a-triaza-cyclopenta [b]fluorene-1,3-dione] | ≤ 1000 nM
COc1ccc2[nH]c3c(c2c1)C[C@@]1(C)C(=O)N(CCN2CCOCC2)C(=O)N1[C@@H]3c1ccccc1 (racemic) [Example 40, (3aSR, 10RS)-6-Methoxy-3a-methyl-2-(2-morpholin-4-yl-ethyl)-10-phenyl-3a,4,9,10-tetrahydro-2,9,10a-triaza-cyclopenta[b]fluorene-1,3-dione] | ≤ 1000 nM
COc1ccc2[nH]c3c(c2c1)C[C@@]1(C)C(=O)N(CCCN2CCN(C)CC2)C(=O)N1[C@@H]3c1ccccc1 (racemic) [Example 68, (3aSR, 10RS)-6-Methoxy-3a-methyl-2-[3-(4-methyl-piperazin-1-yl)-propyl]-10-phenyl-3a,4,9,10-tetrahydro-2,9,10a-triaza-cyclopenta [b]fluorene-1,3-dione] | ≤ 1000 nM
CCNCCN1C(=O)N2[C@H](c3ccccc3)c3[nH]c4ccc(OC)cc4c3C[C@@]2(C)C1=O (racemic) [Example 15, (3aSR,10RS)-2-(2-Ethylamino-ethyl)-6-methoxy-3a-methyl-10-phenyl-3a,4,9,10-tetrahydro-2,9,10a-triaza-cyclopenta[b]fluorene-1,3-dione] | ≤ 1000 nM
CNCCCN1C(=O)N2[C@H](c3ccccc3)c3[nH]c4ccc(OC)cc4c3C[C@@]2(C)C1=O (racemic) [Example 73, (3aSR, 10RS)-6-Methoxy-3a-methyl-2-(3-methylamino-propyl)-10-phenyl-3a,4,9,10-tetrahydro-2,9,10a-triaza-cyclopenta[b]fluorene-1,3-dione] | ≤ 1000 nM

The compounds below were run on RKO p27 colon adenocarcinoma cells, induced (arrested) (assay: Alamar Blue cell viability assay, RKO p27 induced (arrested) by Ponasterone A). Settings: Homo sapiens, RKOp27; anti-proliferative/cytotoxic activity, 72 hours, 10 μM Ponasterone A; read-out: −log EC50 [mol/l] RKO p27 induced (arrested) (converted).
Assay type: cell-based
Experimental: as §1, with “plate. Each compound dilution is tested as triplicates. Wells containing untreated control cells are filled with 50 μl DMEM medium containing 1% DMSO. The cells are then incubated with the substances for 72 hours at 37° C. in a humidified atmosphere containing 5% carbon dioxide. To determine the viability of the cells, 10 μl of an Alamar Blue solution (Biosource) are added and the fluorescence is measured at an extinction of 544 nm and an emission of 590 nm.” for “plate.”
Representative values for anti-proliferation/cytotoxicity [measured as −log EC50 (mol/l)] determined in the aforementioned assays follow from the following tables B1 and B2, in which the numbers of the compounds correspond to the numbers of the examples.

SMILES | EC50
COc1ccc2[nH]c3c(c2c1)C[C@@]1(C)C(=O)N(CCN(C)C)C(=O)N1[C@@H]3c1ccccc1 (racemic) [Example 1, (3aSR,10RS)-2-(2-Dimethylamino-ethyl)-6-methoxy-3a-methyl-10-phenyl-3a,4,9,10-tetrahydro-2,9,10a-triaza-cyclopenta[b]fluorene-1,3-dione] | ≥ 10 µM
